Experimental data from US10617689B2, “Compositions, methods and uses for the treatment of diabetes and related conditions by controlling blood glucose level” (PHARNEXT, priority 2013, dated 2020).

Assays:
[1] = Results synthesis: relative performance value over all in vitro models; conditions: results of all in vitro models normalized and weighed; single drugs
Excerpt: Table 4 gathers results that were obtained in all previously described models (see points from 1.1 to 1.5 above). A value is attributed to each candidate compound depending on its effect in the different in vitro models compared to vehicle. Results are normalized and weighed in order to generate a relative performance value for each candidate compound. A high value reflects a high potential of the compound for the normalization of glucose level and thus a significant efficacy for controlling glucose levels and/or for the treatment of diabetes or related disorders. […]

[2] = tested on: TNF-α induced insulin resistant 3T3-L1 adipocytes; assay: Glucose uptake in TNFα induced insulin resistant 3T3-L1 differentiated adipocytes; type: cell-based; conditions: for glucose uptake (in words): not shown
Method: 3T3L1 fibroblasts were maintained in DMEM 4.5 g/L glucose supplemented with 5% calf serum donor, 5% new born calf serum, 100 U/mL penicillin, and 100 μg/mL streptomycin at 37° C. under a 10% CO2 atmosphere. Cells were grown on 24 well plates at a density of 2560 cells/well in 0.5 mL of growth medium (DMEM 4.5 g/L glucose supplemented with 10% FCS, 100 U/mL penicillin, and 100 μg/mL streptomycin). […] Fresh medium were replaced after two days.
Glucose uptake was measured by quantification of incorporated radiolabelled glucose, after an incubation step with 2-deoxy-D[1,2^3H] glucose for 5 min. Glucose uptake was arrested by two washing steps in ice-cold PBS 1×. Then were solubilized in 0.1N NaOH for 30 min. Cell associated radioactivity have been then counted by using a MicroBeta counter after adding 600 μL per well of scintillant (Optiphase SuperMix3).
In parallel, protein quantification was determined by a colorimetric assay derived from LOWRY method. Results are expressed in nmol of glucose incorporated/5 min/mg of protein and in % of control or basal condition (100%).

[3] = tested on: human primary myotubes derived from a diabetic patient; assay: Glucose uptake in human diabetic myotubes primary cultures; type: cell-based; conditions: for enhancement of glucose uptake: pre-treatment
Method: In order to have a model that is most reflective of the diabetic pathological conditions, efficiency of drugs in enhancing glucose uptake in diabetic myotubes was tested. […] The myotubes from a diabetic patient were grown on HAM's F10-based media (Sigma, ref […]) supplemented with 15% of fetal bovine serum, 1 mM glutamine. Myoblast were seeded at 380,000 cells/well in 12-well plates. After 2 days of proliferation, the cells were placed in reduced serum conditions (2% horse serum) to induce differentiation. The myotubes were used after 5 days of differentiation. Dulbecco's modified Eagle's medium (DMEM)-based media (Gibco, ref 31053-028) supplemented with 2% heat-inactivated Horse serum, 2% Glutamax (Gibco, 35050) and washed for glucose uptake assays. Compounds were dissolved in DMSO to reach desired final concentration prior use. The differentiated myotubes were treated for 24 h with the compositions of the invention, before the assay. Before the initiation of glucose uptake, the cells were deprived of serum and glucose. […] After adding the compounds at the desired concentrations, the cells were incubated at 37° C. during 2 h30. […] A subsequent glucose and serum deprivation was performed in FIBS buffer at 37° C. for 2 hours. […] The cells were rinsed twice with 1 mL of cold PBS. The lysis was performed in 500 μL of 0.05N NaOH for 20 minutes. The cells lysates were transferred into scintillation vials for the measurement of radioactivity with a MicroBeta counter.

[4] = tested on: beta pancreatic INS-1 cells; assay: Prevention of beta cells apoptosis; type: cell-based; conditions: 1 h pre-incubation then 24 h in apoptotic condition, drugs tested alone
Method: Drugs of the invention have been tested for their efficiency in protecting beta cells from apoptosis. Such activity could be considered of use in type 1 diabetes as well as in type 2 diabetes.
The beta pancreatic INS-1 cells have been selected for this study. The cells are cultured in complete medium, RPMI 1640 10 mM glucose supplemented with 1 mM sodium pyruvate, 50 μM 2-mercaptoethanol, 2 mM glutamine, 10 mM HEPES, 100 IU/mL penicillin, 100 μg/mL streptomycin and 10% heat-inactivated foetal calf serum (FCS), as described by Asfari et al. (23). INS-1 cells are plated (4.5×10^4 cells/well) in 96-well poly ornithine coated plates and cultured at 37° C. in a humidified atmosphere of 95% air/5% CO2. The day after, cells are pre-incubated with the tested molecules for 1 h. Then, after a medium change, cells are cultured for 24 h in a medium containing the tested molecules and glucose 30 mM, myristic acid 0.05 mM, INF 25 ng/mL, TNF 25 ng/mL and IL 5 ng/mL.
The efficacy of compounds to prevent apoptosis is then evaluated by the highly specific apoptosis detection kit from Chemicon (Ref. APT225). This procedure is based on the detection of single-stranded DNA (ssDNA) which is a specific marker of apoptotic cells (24).
Results are expressed in optical density (OD) arbitrary unit and % of reduction of the apoptosis induced by apoptotic condition. […]

[5] = tested on: Mouse muscle cells H-2 Kb; assay: Glucose uptake in mouse muscle cells; type: cell-based; conditions: H-2 Kb cells; short term; 0.1 μM; vs non-treated cells
Method: For differentiation in myoblast, cells are switched to non-permissive culture conditions (37° C. in a humidified atmosphere of 95% air/5% CO2; DMEM 5.5 mM D-glucose supplemented with 2% FCS, 10% horse serum, 2% glutamine, 1% chicken embryo extract, 100 U/mL penicillin, and 100 μg/mL streptomycin).
For long term effect evaluation, the day before glucose uptake assay, cells are incubated in DMEM 5.5 mM D-glucose supplemented with 10% horse serum, 2% SVF, 1% chicken embryo extract, 2% glutamine in the presence of the tested molecules for 16 h. […]
For short term effect evaluation, 4 hours prior to the glucose test, cells are washed and incubated in a serum-free medium (DMEM) containing 5.5 mM D-glucose and the tested molecules. Then glucose uptake is measured by incubation of the cells for 5-10 min with radiolabelled 2-deoxy-D-[1,2 ^3H] glucose in Krebs-Ringer HEPES buffer (KRBH; pH 7.4) 0.1% Bovine Serum Albumine (BSA) fraction V (Sigma_A-4503). […] Cell associated radioactivity is then counted and protein quantification is determined using the colorimetric Lowry method. Glucose uptake is estimated by measuring the radioactivity incorporated to the cells by a MicroBeta counter after adding 600 μL per well of scintillant (Optiphase SuperMix3).
Protein quantification is performed by a colorimetric assay derived from Lowry method. […]

[6] = mainly from Martindale (Edition 2011) and Nathan et al. (2009); cited from earlier work

Cc1cccc(Nc2ccncc2S(=O)(=O)NC(=O)NC(C)C)c1 [torasemide]
Relative performance value [1]: 16 | glucose uptake, drug used alone (in words) ([2]; alone at 10 nM): No significant effect | enhancement of glucose uptake ([3]; 0.01 μM): +24% | enhancement of glucose uptake ([3]; 1 μM): +14%

CC(=O)NCCCS(=O)(=O)O [acamprosate]
Relative performance value [1]: 15 | Percentage of apoptosis reduction [4]: 49% | enhancement of glucose uptake [5]: +45%

Nc1nc(N)c2nc(-c3ccccc3)c(N)nc2n1 [triamterene]
Relative performance value [1]: 18 | glucose uptake, drug used alone (in words) ([2]; alone at 3.3 nM): No significant effect | enhancement of glucose uptake ([3]; 0.01 μM): +13%

Cn1c(=O)c2c(ncn2CC(O)CO)n(C)c1=O (centres unmarked) [diprophylline]
Relative performance value [1]: 11

C[C@@H]1CC(=O)NN=C1c1ccc(NN=C(C#N)C#N)cc1 [levosimendan]
Relative performance value [1]: 20

O=C1NCC2(CCN(CCc3ccccc3)CC2)O1 [fenspiride]
glucose uptake (in words) ([2]; 0.37 nM and 3.3 nM): improvement | enhancement of glucose uptake ([3]; 0.01 μM): +34% | enhancement of glucose uptake ([3]; 0.1 μM): +30% | enhancement of glucose uptake ([3]; 1 μM): +27%

Cc1ccc(C(=O)C(C)CN2CCCCC2)cc1 (centres unmarked) [tolperisone]
Relative performance value [1]: 19

O=C[C@@H](O)[C@@H](O)[C@H](O)[C@H](O)CO [D-mannose]
Relative performance value [1]: 18

CCN[C@@H](C)Cc1cccc(C(F)(F)F)c1 [dexfenfluramine]
Side Effects [6]: Cardiovascular

Cc1cccc(C)c1OCC(C)N (centres unmarked) [mexiletine]
Relative performance value [1]: 10

CC(C(O)c1ccc(O)cc1)N1CCC(Cc2ccccc2)CC1 (centres unmarked) [ifenprodil]
Relative performance value [1]: 28 | glucose uptake (in words) ([2]; 10 nM and 100 nM): improvement | glucose uptake (in words) ([3]; 0.1 μM and 1 μM): improvement | enhancement of glucose uptake ([3]; 0.01 μM): +48%

CN/C(=N/CCSCc1nc[nH]c1C)NC#N [cimetidine]
Relative performance value [1]: 31

C1COC(NC(C2CC2)C2CC2)=N1 [rilmenidine]
Relative performance value [1]: 16

c1cnc(N2CCN(Cc3ccc4c(c3)OCO4)CC2)nc1 [piribedil]
Relative performance value [1]: 24

CCN(CC)CCOCCOC(=O)C1(c2ccccc2)CCCC1 [carbetapentane]
Relative performance value [1]: 33

C=CCNc1nc(NCC=C)nc(N2CCN(C(c3ccc(F)cc3)c3ccc(F)cc3)CC2)n1 [almitrine]
Relative performance value [1]: 38

COC1=C(OC)C(=O)C(CCCCCCCCCCO)=C(C)C1=O [idebenone]
Relative performance value [1]: 53

CN(C)C(=N)N=C(N)N [metformin]
glucose uptake, drug used alone (in words) ([2]; metformin alone at 250 μM): No significant effect

NCC(CC(=O)O)c1ccc(Cl)cc1 (racemic) [baclofen]
Relative performance value [1]: 16 | glucose uptake, drug used alone (in words) ([2]; alone at 3.3 nM): No significant effect

Cc1c(Cl)cccc1Nc1ccccc1C(=O)O [tolfenamic acid]
Relative performance value [1]: 9 | glucose uptake (in words) ([2]; 100 nM and 1 μM): improvement | glucose uptake, drug used alone (in words) ([2]; alone at 3.3 nM): No significant effect | enhancement of glucose uptake ([3]; 0.01 μM): +13% | enhancement of glucose uptake ([3]; 0.1 μM): +13% | enhancement of glucose uptake ([3]; 1 μM): +12%

CO[C@]12C[C@@H](COC(=O)c3cncc(Br)c3)CN(C)[C@@H]1Cc1cn(C)c3cccc2c13 [nicergoline]
Relative performance value [1]: 40

CN1CCCC(n2nc(Cc3ccc(Cl)cc3)c3ccccc3c2=O)CC1 (centres unmarked) [azelastine]
Relative performance value [1]: 30

CCN(CC)C(=O)N1CCN(C)CC1 [diethylcarbamazine]
Relative performance value [1]: 32

C[C@@H](NCCCc1cccc(C(F)(F)F)c1)c1cccc2ccccc12 [cinacalcet]
Relative performance value [1]: 32

CN(C)CC[C@@H](c1ccc(Br)cc1)c1ccccn1 [dexbrompheniramine]
Relative performance value [1]: 21
